Experimental data as given in PMC8890542, “Discovery of novel paeonol-based derivatives against skin inflammation in vitro and in vivo” (Journal of Enzyme Inhibition and Medicinal Chemistry, 2022).

Legend:
JNK [1] = assay: Western blot, SUV-induced JNK phosphorylation in HaCaT cells; assay type: cell-based, human; conditions: SUV (40 kJ/m^2) 30 min
Method: (§1) HaCaT cells were seeded into 6-well plate with 2 × 10^6 cells per well. After 24 h culture and 12 h starvation, they were stimulated with SUV irradiation. The cells were irritated with 40 KJ/m^2 doses of SUV at 30 min. In order to study the effect of compound B12, the cells were starved in serum-free medium for 12 h, and then pre-treated with compound B12 (2.5, 5, 10 μM) for 6 h before SUV irradiation. Follow the same steps as above to transfer the electrophoretic band to PVDF membrane. All steps were performed in the same way as above except that the types of primary and secondary antibodies were different.

COX-2 = assay: Western blot of COX-2 in LPS-stimulated RAW264.7 cells; assay type: cell-based, mouse; conditions: 2.5, 5, 10 µM, 1 h, LPS 24 h
Method: (§2) RAW264.7 cells were seeded into 6-well plate with 2 × 10^6 cells per well and maintained about 24 h, and then pre-treated with compound B12 (2.5, 5, 10 µM) for 1 h, co-treated with LPS (0.5 µg/mL) for 0.5 h or 24 h. Western blotting assay was performed as the method described previously. Briefly, the cells were lysed in […] RIPA cell lysis buffer (Contains PMSF and phosphatase inhibitors, Beyotime China) and incubated on ice for 30 min. Collecting supernatant by centrifugation. The same amount of protein was separated by SDS-PAGE and transferred to PVDF membrane (GE Healthcare, Amersham, UK). The blotted membrane incubated with the primary antibodies and allowed to react for an additional 16 h at 4 °C. All antibodies obtain from Cell Signalling Technology, Boston, MA. The membranes incubated with a 1:5000 dilutions of HRP-conjugated secondary antibody (Beyotime Biotech, Nantong, China) for 1 h at room temperature. Signals were visualised using ECL system (Thermo Fisher Scientific, Waltham, MA).

STAT3 = assay: Western blot, SUV-induced STAT3 phosphorylation in HaCaT cells; assay type: cell-based, human; conditions: 2.5 μM to 10 μM, 6 h before 40 KJ/m^2 SUV
Method: as §1

p38 [2] = assay: Western blot, SUV-induced p38 phosphorylation in HaCaT cells; assay type: cell-based, human; conditions: SUV (40 kJ/m^2) 30 min
Method: as §1

JNK [3] = assay: Western blot, LPS-induced JNK phosphorylation in RAW264.7; assay type: cell-based, mouse; conditions: LPS (0.5 μg/mL) 30 min
Method: as §2

NF-κB p65 = assay: Western blot, LPS-induced NF-κB p65 translocation in RAW264.7; assay type: cell-based, mouse; conditions: LPS (0.5 μg/mL) 30 min
Method: as §2

γ-H2AX = assay: Western blot, SUV-induced γ-H2AX in HaCaT cells; assay type: cell-based, human; conditions: 2.5 μM to 10 μM, 6 h before 40 KJ/m^2 SUV
Method: as §1

iNOS = assay: Western blot of iNOS in LPS-stimulated RAW264.7 cells; assay type: cell-based, mouse; conditions: 2.5, 5, 10 µM, 1 h, LPS 24 h
Method: as §2

TOPK = biological target: T1, TOPK (Homo sapiens, UniProt Q96KB5); assay: Cellular thermal shift assay (CETSA); assay type: binding; conditions: especially at 57 °C
T1 construct: endogenous in cells
T1 sequence (Q96KB5 1-322): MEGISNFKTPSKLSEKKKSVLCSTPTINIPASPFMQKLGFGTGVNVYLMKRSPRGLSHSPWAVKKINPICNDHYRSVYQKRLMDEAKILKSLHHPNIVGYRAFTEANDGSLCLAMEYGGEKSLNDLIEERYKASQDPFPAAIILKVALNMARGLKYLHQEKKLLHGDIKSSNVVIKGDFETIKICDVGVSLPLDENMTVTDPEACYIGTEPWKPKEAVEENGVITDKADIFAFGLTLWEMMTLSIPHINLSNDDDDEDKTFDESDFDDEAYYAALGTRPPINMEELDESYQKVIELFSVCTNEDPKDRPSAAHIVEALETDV
From the text: Based on the ligand-induced thermal stabilisation of target proteins, the cellular thermal shift assay (CETSA) assay is likely to validate drug binding, off-target effects or drug resistance in cell lines. To further detect the direct binding of compound B12 with TOPK protein, CETSA was used in this study.

[4] = test system: LPS-induced nitric oxide production in RAW264.7 cells; assay: LPS-induced NO production, Griess Reagent assay; assay type: cell-based, mouse; conditions: Mus musculus
Method: RAW264.7 cells (7 × 10^4 cells/well) were seeded into 48-well plate and used for experiments after 24 h. […] After 24 h collect cell supernatant, NO production was measured using Griess Reagent assay (Beyotime). Griess reagent were mixed at a ratio of 1:1, and reacted at room temperature for 15 min. Measurement of absorbance at […] with enzyme reader. At least three independent experiments were performed for the determination of IC50 values, which were shown as mean ± SD. All experimental data were analysed by using GraphPad Prism software, version 8.0 (GraphPad Inc.).

P38 [5] = assay: Western blot, LPS-induced p38 phosphorylation in RAW264.7; assay type: cell-based, mouse; conditions: LPS (0.5 μg/mL) 30 min
Method: as §2

LPS-induced HaCaT cells = assay: Hyperproliferation assay, LPS-stimulated HaCaT cells (MTT); assay type: cell-based, human; conditions: pre-treated 6 h, LPS 24 h
Method: HaCaT cells were seeded in 96-well plates and cultured at 37 °C in a humidified 5% CO2 atmosphere. When the cell confluency reached 60–70%, HaCaT cells were then starved in serum-free DMEM for 12 h before stimulated by 100 ng/mL LPS for 24 h to mimic hyperproliferative psoriatic keratinocytes. The cell viability was measured by MTT method. Results are expressed as the percentage survival of cells in the cell treated group and the untreated control group (without the tested compound and LPS).

[6] = Cell viability assay (MTT), LO2; assay type: cell-based; conditions: human, LO2 cells, read-out: Cytotoxicity IC50 with LO2
RAW264.7 cells = assay: Cell viability assay (MTT), RAW264.7; assay type: cell-based, mouse; conditions: 24 h, read-out: Cytotoxicity IC50 with RAW264.7
Method: (§3) RAW264.7 cells (1 × 10^4 cells/well) were seeded into 96-well plate and used for experiments after 24 h. Compounds (4 µM, 20 µM and 100 µM) treated cell for 24 h. Forty microliters of MTT solution (5 mg/mL, Sigma-Aldrich) was then added and incubated for an additional 4 h. After 4 h, cell culture supernatants were removed and DMSO (150 µL) was added into per well for dissolving the resulting crystals. Shaking about 1 0 ∼ 15 min and the absorbance at 492 nm was measured by a microplate reader (MQX200, Bio-Tek, Winooski, VT). At least three independent experiments were performed for the determination of IC50 values, which were shown as mean ± SD. All experimental data were analysed by using GraphPad Prism software, version 8.0 (GraphPad Inc.).

[7] = Cell viability assay (MTT), RAW264.7; assay type: cell-based, mouse; conditions: mouse, RAW264.7 cells, read-out: Cytotoxicity IC50 with RAW264.7
Method: as §3

[8] = Human liver microsomes stability assay in vitro; assay type: in vitro ADME
Method: The livers were homogenised initially in a Tris (0.1 M)/KCl (0.1 M)/EDTA (1 mM)/butylated sodium hydroxytoluene (BHT) (0.02 mM) buffer. Add 1.5 µL control/test compound B12 working solution to 238.5 µL liver microsome working solution, gently mix. Pre-incubate at 37 °C for 5 min. Start the reaction by adding 60 µL NADPH working solution. Mix by pipetting up and down. At each time point: 0, 5, 15, 30 and 60 min, remove 30 µL of reaction mixture to 300 µL of quenching solution. Vortex vigorously for ∼1 min and centrifuge at 4000 rpm at 4 °C for 15 min. Remove 100 µL of the supernatant and mixed with 100 µL distilled water for LC-MS/MS analysis.

[9] = test system: IMQ-induced psoriasis mouse model; assay: IMQ-induced psoriasis-like skin inflammation mouse model; assay type: in vivo, BALB/c mice
From the text: During treatment for 7 days, to score the severity of inflammation of mouse skin, an objective scoring system was developed based on the clinical psoriasis area and severity index. Erythema, scaling, and thickening were scored independently from 0 to 4 as follows: 0, none; 1, slight; 2, moderate; 3, marked; 4, very marked and weight loss. The cumulative score (erythema plus scaling plus thickening) served to indicate the severity of inflammation (scale 0 ∼ 12). On the 8th day, the mice were taken eyeball blood and back skin. One-half of the samples were immediately fixed in 4% paraformaldehyde and for haematoxylin and eosin (H&E) staining. The other samples were put in a −80 °C freezer. Before used, they were placed at room temperature for 30 min. After that, they were added 1 × PBS proportionally, homogenised and centrifuged. The supernatant was collected and used for ELISA assay and Western blot assay. […] The histological image was obtained using 3[sequence]’s Slide Converter (3[sequence], Hungary).

COc1cc(O)c(C(C)=O)cc1NC(=O)Nc1cccc(C(F)(F)F)c1 [Compound B12, 1–(5-acetyl-4-hydroxy-2-methoxyphenyl)-3–(3-(trifluoromethyl)phenyl) urea]
Phosphorylation of JNK, SUV-induced (JNK [1]): inhibited
Expression of COX-2 (COX-2): inhibited by compound B12 in a dose-dependent manner
Level of phosphorylated STAT3 (STAT3): gradually decreased
Phosphorylation of p38, SUV-induced (p38 [2]): inhibited
JNK protein phosphorylation (JNK [3]): inhibited
NF-κB p65 translocation into the nucleus (NF-κB p65): inhibited
Level of phosphorylated γ-H2AX (γ-H2AX): gradually decreased
Expression of iNOS (iNOS): inhibited by compound B12 in a dose-dependent manner
Thermal stability of TOPK (CETSA) (TOPK): stabilised
IC50 ([4]; LPS (0.5 μg/mL) 24 h): 2.14 µM
inhibition at 10 µM ([4]; compounds 10 μM, 1 h, then LPS (0.5 μg/mL) 24 h, read-out: Inhibition rate±SD (%) against NO production): 95.5 ± 3.26%
P38 protein phosphorylation (P38 [5]): inhibited
Excessive proliferation of LPS-induced HaCaT cells (LPS-induced HaCaT cells): inhibited excessive proliferation of LPS-induced HaCaT cells in a dose dependent manner
IC50 at 24 h [6]: > 100 µM
IC50 (RAW264.7 cells): > 100 µM
IC50 at 24 h [7]: > 50 µM
CLhep ([8]; human): 0.51 L/h/kg
half-life ([8]; human liver microsomes): 1.85 h
microsomal CLint ([8]; human liver microsomes): 12.5 µL/min/mg
Pathological reduction, H&E of skin tissue ([9]; 20 mg/kg, intragastric once a day, 7 days): moderate pathological reduction
Pathological reduction, H&E of skin tissue ([9]; 40 mg/kg, intragastric once a day, 7 days): high pathological reduction
Expression of related proteins (p-STAT3, p-TOPK, TOPK, p-p38, p-JNKs, PCNA, p-H2AX) in mouse skin tissues ([9]; 20 and 40 mg/kg, Western blot): decreased significantly
Experimental symptoms and PASI score ([9]; B12 20 and 40 mg/kg, Dex 20 mg/kg, intragastric once a day, 7 days): significantly attenuated experimental symptoms and PASI score in a dose-dependent manner
